Data from ChEMBL document CHEMBL1149806, “Synthesis and antiproliferative activities of isoindigo and azaisoindigo derivatives” (Eur J Med Chem, 2008).

Key:
[1] = tested on: KB; assay: Antiproliferative activity against human KB cells at 10 uM after 72 hrs by MTS test; format: functional
[2] = tested on: K562; assay: Antiproliferative activity against human K562 cells at 10 uM after 72 hrs by MTS test; format: functional; conditions: K562, 72 h
[3] = tested on: HL-60; assay: Antiproliferative activity against human HL60 cells at 10 uM after 72 hrs by MTS test; format: functional; conditions: HL-60, 72 h
[4] = tested on: KB; assay: Antiproliferative activity against human KB cells at 0.25 nM after 72 hrs by MTS test; format: functional
[5] = tested on: KB; assay: Antiproliferative activity against human KB cells after 72 hrs by MTS test; format: functional, cell-based

IC50 [5]	SMILES	inhibition at 10 µM [1]	inhibition at 10 µM [2]	inhibition at 10 µM [3]	inhibition at 0.00025 µM [4]
–	CC(=O)OC[C@H]1O[C@@H](N2C(=O)/C(=C3/C(=O)Nc4ccc(OC(F)(F)F)cc43)c3ccccc32)[C@H](OC(C)=O)[C@@H](OC(C)=O)[C@@H]1OC(C)=O	0%	3%	4%	–
–	CC(=O)O[C@@]12CO[C@@H]1C[C@H](O)[C@@]1(C)C(=O)[C@H](O)C3=C(C)[C@@H](OC(=O)[C@H](O)[C@@H](NC(=O)OC(C)(C)C)c4ccccc4)C[C@@](O)([C@@H](OC(=O)c4ccccc4)[C@H]21)C3(C)C [DOCETAXEL]	–	32%	46%	71%
1600 nM	O=C1Nc2ccccc2/C1=C1\C(=O)Nc2ccccc21 [ISOINDIGO]	92%	64%	53%	–
